Results taken from US20210395210A1, “INHIBITION OF BACTERIAL CHAPERONIN SYSTEMS” (THE TRUSTEES OF INDIANA UNIVERSITY, priority 2018, published 2021).
Entries after “also recorded” stand apart in the source; their conditions may differ. Read-outs that look alike come from different tables or passages of the source.

Columns and labels:
[1] = tested on: S. aureus Rosenbach (ATCC 25923) in established biofilms; test: S. aureus biofilm penetration and bactericidal activity assay; format: cell-based, Staphylococcus aureus; details: read-out: S. aureus Proliferation & Biofilm Assay EC50 Killing Bacteria in Biofilms
Experimental: The biofilm penetration and bactericidal activity assay was carried out with S. aureus Rosenbach (ATCC 25923) as described previously by Kwasny et al. S. aureus bacteria were streaked onto a Tryptic Soy Broth (TSB) agar plate and grown overnight at 37° C. A fresh aliquot of TSB media was inoculated with a single bacterial colony and the cultures were grown overnight at 37° C. with shaking (250 rpm). The overnight culture was then sub-cultured (1:5 dilution) into a fresh aliquot of TSB media supplemented with 0.5% glucose and grown at 37° C. for 1 h with shaking, then diluted into fresh TSB media supplemented with 0.5% glucose to achieve a final OD600 reading of 0.01. Aliquots of the diluted culture (100 μL) were dispensed to 96 well polystyrene plates without any compounds added. A second set of control plates were prepared analogously, but without any bacteria added. Plates were sealed with “Breathe Easy” oxygen permeable membranes (Diversified Biotech) and left to incubate at 37° C. without shaking (stagnant assay) until biofilm was formed. After 24 h, the planktonic cultures (or media blanks in the control plates) were removed and the plates were washed gently 3 times with 200 μL of sterile phosphate buffered saline (PBS). Then, 100 μL aliquots of fresh TSB media were dispensed to the plates along with addition of 1 μL of test compounds in DMSO. The inhibitor concentration range during the assay was 100 μM to 46 nM (3-fold dilution series). The plates were sealed with “Breathe Easy” membranes and incubated at 37° C. without shaking to allow compounds to penetrate and kill bacteria in the biofilms. After 24 h, the cultures were removed and plates were washed again gently 3 times with 200 μL of sterile PBS. The remaining bacteria in the biofilms were allowed to recover by adding 100 μL of fresh TSB media per well and incubating for 24 h at 37° C. At the end of this final incubation, bacterial growth was monitored by measuring the OD600 nm using a Molecular Devices SpectraMax Plus384 microplate reader. […] Results presented represent the averages of EC50 values obtained from at least triplicate experiments.
Next, we evaluated whether or not compounds would be bactericidal to S. aureus that were within already established biofilms. In this assay, we first grew S. aureus bacteria for 24 h in the absence of test compounds so that they could establish biofilms in the wells. After 24 h, the cultures were removed, the wells were washed gently, and fresh media was added along with test compounds or vancomycin. […] Fresh media was then added and the cultures were incubated for another 24 h to allow any viable bacteria remaining in the biofilms to emerge and grow planktonically again.

[2] = tested on: MRSA (ATCC BAA-44); test: MRSA resistance generation, 12-day serial passage assay; format: cell-based, Staphylococcus aureus; details: 12 days serial passage, EC50 per passage
Experimental: To identify potential resistance toward compounds 1 and 11, a liquid culture, 12-day serial passage assay was employed as per previously reported procedures, and using the ATCC BAA-44 MRSA strain. MRSA bacteria were streaked onto a Tryptic Soy agar plate and grown overnight at 37° C. A fresh aliquot of Tryptic Soy Broth (TSB) was inoculated with a single bacterial colony and the cultures were grown overnight at 37° C. with shaking (250 rpm). The overnight culture was then sub-cultured (1:5 dilution) into a fresh aliquot of media and grown at 37° C. for 1 h with shaking, then diluted into fresh media to achieve a final OD600 reading of 0.01. Aliquots of the diluted culture (200 μL) were dispensed to 96 well plates along with addition of 2 μL of test compounds in DMSO (1, 11, vancomycin, and a previously-reported GroEUES inhibitor, “28R”). The inhibitor concentration range during the resistance assay was 100 μM to 48.8 nM (2-fold dilution series). Plates were sealed with “Breathe Easy” oxygen permeable membranes (Diversified Biotech) and left to incubate at 37° C. without shaking (stagnant assay). OD600 readings were taken at the 24 h time point to monitor for bacterial growth. A second set of baseline control plates were prepared analogously, without any bacteria added, to correct for possible compound absorbance and/or precipitation, as well as plate and media baseline effects. […]

[3] = tested on: THLE-3 liver cells; test: Liver cell viability assay (Alamar Blue); details: read-out: Human Cell Viability CC50, Liver (THLE-3); THLE-3 liver cells, Alamar Blue, 48 h
Experimental: (§1) HEK 293 cells were maintained in MEM medium (Corning Cellgro, 10-009 CV) supplemented with 10% FBS (Sigma, F2242). […] Cells at 80% confluence were harvested and diluted in growth medium, then 45 μL of the THLE-3 cells (1,500 cells/well) or HEK 293 cells (1,500 cells/well) were dispensed per well, and plates were sealed with “Breathe Easy” oxygen permeable membranes (Diversified Biotech) and incubated at 37° C., 5% CO2, for 24 h.

[4] = tested on: HEK 293 kidney cells; test: Kidney cell viability assay (Alamar Blue); details: read-out: Human Cell Viability CC50, Kidney (HEK 293); HEK 293 kidney cells, Alamar Blue, 48 h
Experimental: as §1

[5] = Staphylococcus aureus, ATCC25923, 24 h

Compound | EC50 [1, 5] | CC50 [3] | CC50 [4] | other results
O=C(Nc1cccc(Cl)c1)c1cc(Br)ccc1O [Compound 11, 5-Bromo-N-(3-chlorophenyl)-2-hydroxybenzamide] | 6.9 µM |  |  | ability of MRSA to generate resistance (in words) [2]: not able to easily generate resistance; also recorded: retained sensitivity
O=C(Nc1cccc(Cl)c1)c1cc(Br)cc(Br)c1O [Compound 9, 3,5-Dibromo-N-(3-chlorophenyl)-2-hydroxybenzamide] |  | 9.2 µM | 18 µM | 
CN[C@H](CC(C)C)C(=O)N[C@H]1C(=O)N[C@@H](CC(N)=O)C(=O)N[C@H]2C(=O)N[C@H]3C(=O)N[C@H](C(=O)N[C@H](C(=O)O)c4cc(O)cc(O)c4-c4cc3ccc4O)[C@H](O)c3ccc(c(Cl)c3)Oc3cc2cc(c3O[C@@H]2O[C@H](CO)[C@@H](O)[C@H](O)[C@H]2O[C@H]2C[C@](C)(N)[C@H](O)[C@H](C)O2)Oc2ccc(cc2Cl)[C@H]1O [Vancomycin, vancomycin, reference compound] |  | > 100 µM | > 100 µM | EC50 ([1]; established 24 h biofilm, 24 h with compound, 24 h recovery, OD600): > 100 µM
O=C(Nc1ccc(Oc2ccc(Cl)cc2)c(Cl)c1)c1cc(I)cc(I)c1O [Rafoxanide, rafoxanide, reference compound] |  | 24 µM | > 100 µM | 
O=C(Nc1ccc(Sc2nc3ccccc3s2)c(Cl)c1)c1cccc(Br)c1O [Compound 2, N-(4-(Benzo[d]thiazol-2-ylthio)-3-chlorophenyl)-3-bromo-2-hydroxybenzamide] | 5.6 µM |  |  | 
O=C(Nc1ccc(Sc2nc3ccccc3s2)cc1)c1cc(Br)cc(Br)c1O [Compound 5, N-(4-(Benzo[d]thiazol-2-ylthio)phenyl)-3,5-dibromo-2-hydroxybenzamide] | 2.3 µM |  |  | 
O=C(Nc1ccc(Sc2nc3ccccc3s2)c(Cl)c1)c1cc(Br)cc(Br)c1O [Compound 1, N-(4-(Benzo[d]thiazol-2-ylthio)-3-chlorophenyl)-3,5-dibromo-2-hydroxybenzamide] | 2.4 µM |  |  | ability of MRSA to generate resistance (in words) [2]: not able to easily generate resistance; also recorded: retained sensitivity
CC1(C)S[C@@H]2[C@H](NC(=O)[C@H](N)c3ccccc3)C(=O)N2[C@H]1C(=O)O [Ampicillin, ampicillin, reference compound] |  | > 100 µM | > 100 µM | 
O=C(Nc1ccc(Sc2nc3ccccc3s2)cc1)c1ccccc1O [Compound 8, N-(4-(Benzo[d]thiazol-2-ylthio)phenyl)-2-hydroxybenzamide] |  |  |  | EC50 ([1]; Staphylococcus aureus, ATCC25923, established 24 h biofilm, 24 h with compound, 24 h recovery, OD600): 2 µM
Cc1cc(C(C#N)c2ccc(Cl)cc2)c(Cl)cc1NC(=O)c1cc(I)cc(I)c1O (stereo not drawn) [Closantel, closantel, reference compound] |  |  | 75 µM | 
O=C(Nc1ccccc1)c1cc(Br)cc(Br)c1O [Compound 13, 3,5-Dibromo-2-hydroxy-N-phenylbenzamide] |  | 25 µM | 34 µM | 
O=C(Nc1ccccc1)c1ccccc1O [Compound 16, 2-Hydroxy-N-phenylbenzamide] |  | 68 µM | > 100 µM | 
